Measurements published in patent publication US20210308089A1, “METHODS OF TREATING AND/OR PREVENTING VIRAL INFECTIONS AND/OR DISEASES CAUSED BY VIRUSES IN A SUBJECT IN NEED THEREOF” (priority 2020, published 2021).

Test system: patients of the REDUCE-IT and earlier EPA placebo-controlled trials
Assay: Example 3: adverse events by risk ratio, icosapent ethyl vs placebo (candidate categories; infectious disease terms of interest)
Conditions: R-I

## CC/C=C\C/C=C\C/C=C\C/C=C\C/C=C\CCCC(=O)OCC [icosapent ethyl, eicosapentaenoic acid ethyl ester]
  AR: Bipolar Disease (AE table): 0.0%
  AR: Blood CPK increased (AE table): 1.6%
  AR: Blood glucose increased (AE table): 0.2%
  AR: Bone Fractures (AE table): 0.0%
  AR: Bronchiectasis (AE table): 0.1%
  AR: Bronchitis chronic (AE table): 0.2%
  AR: CKD (AE table): 1.3%
  AR: COPD (AE table): 2.7%
  AR: Carotid bruit (AE table): 0.4%
  AR: Cholestasis (AE table): 0.0%
  AR: Chrohn's Disease (AE table): 0.0%
  AR: Cognitive Decline: Attention disorders and disturbances (AE table): 0.0%
  AR: Cognitive Decline: Cognitive and attention disorders and disturbances (AE table): 0.0%
  AR: Cough (AE table): 5.9%
  AR: Decreased Appetite (AE table): 0.5%
  AR: Deep Venous Thromboembolism (AE table): 0.2%
  AR: Depression: Depressed mood disorders and disturbances (AE table): 2.9%
  AR: Depression: Depressive disorders (AE table): 2.8%
  AR: Depression: Depressive disorders - Agitated depression (AE table): 0.0%
  AR: Depression: Depressive disorders - Depression (AE table): 2.6%
  AR: Depression: Depressive disorders - Major depression (AE table): 0.0%
  AR: Depression: Depressive disorders - Persistent depressive disorder (AE table): 0.0%
  AR: Depression: Mood alterations - Depressed mood (AE table): 0.1%
  AR: Depression: Mood alterations - Depressive symptom (AE table): 0.0%
  AR: Depression: Mood alterations with depressive symptoms (AE table): 0.2%
  AR: Dermatitis psoriasiform (AE table): 0.0%
  AR: Dermatitis, allergic (AE table): 0.2%
  AR: Diabetic Nephropathy (AE table): 0.3%
  AR: ESRD (AE table): 0.1%
  AR: Ear infection (AE table): 0.9%
  AR: Embolism and Thrombosis (AE table): 1.2%
  AR: Emphysema (AE table): 0.4%
  AR: Epilepsy (AE table): 0.0%
  AR: Erectile dysfunction (AE table): 1.8%
  AR: Furuncle (AE table): 0.2%
  AR: Gastroenteritis, viral (AE table): 1.1%
  AR: Gastroesophageal reflux (AE table): 0.1%
  AR: Gingivitis (AE table): 0.2%
  AR: Glomerulonephritis and Nephrotic Syndrome (AE table): 0.0%
  AR: Guttate psoriasis (AE table): 0.0%
  AR: Helicobacter infection (AE table): 0.2%
  AR: Hepatitis C (AE table): 0.0%
  AR: Herpes Zoster (AE table): 1.8%
  AR: Herpes simplex (AE table): 0.2%
  AR: Hyperglycemia (AE table): 2.0%
  AR: Hyperkalemia (AE table): 1.1%
  AR: Hypertension (AE table): 8.1%
  AR: Hypertensive Crisis (AE Table): 0.9%
  AR: Hypokalemia (AE table): 2.0%
  AR: Hypomagnesemia (AE table): 0.9%
  AR: Infected bite (AE table): 0.1%
  AR: Influenza (AE table): 6.5%
  AR: Influenza like illness (AE table): 0.6%
  AR: Jaundice cholestatic (AE table): 0.0%
  AR: Large intestine polyps (AE table): 0.2%
  AR: Limb Fractures and Dislocations (AE table): 0.8%
  AR: Lupus (AE table): 0.0%
  AR: Microalbuminuria (AE table): 0.2%
  AR: Migraine (AE table): 0.2%
  AR: Mucosal inflammation (AE table): 0.1%
  AR: Multiple Sclerosis (AE table): 0.0%
  AR: Muscle spasms (AE table): 2.0%
  AR: NASH (AE table): 0.1%
  AR: NASH for b/l NFS >0.675 (AE table): 0.3%
  AR: NASH+Hepatic Steatosis for NFS >0.675 (AE table): 1,6%
  AR: Nasopharyngitis, Mild Severity (AE table): 7.7%
  AR: Nephrolithiasis (AE table): 2.0%
  AR: Nephropathies (AE table): 0.6%
  AR: Nephrotic Syndrome (AE table): 0.0%
  AR: Orthopnea (AE table): 0.1%
  AR: PTSD (AE table): 0.1%
  AR: Pancytopenia (AE table): 0.2%
  AR: Pneumonia (AE table): 6.6%
  AR: Proteinuria (AE table): 0.5%
  AR: Psoriasis (AE table): 0.5%
  AR: Psoriatic Conditions (AE table): 0.6%
  AR: Psychosis: Psychotic disorder NEC (AE table): 0.0%
  AR: Pulmonary Edema (AE table): 0.3%
  AR: Respiratory Failure (AE table): 0.5%
  AR: Respiratory tract infection (AE table): 1,2%
  AR: Rheumatoid Arthritis (AE table): 0.0%
  AR: Rhinitis (AE table): 0.5%
  AR: Schizophrenia NEC (AE table): 0.0%
  AR: Sepsis (AE table): 0.9%
  AR: Severe chronic obstructive pulmonary disease (AE table): 0.5%
  AR: Severe dermatitis, allergic (AE table): 0.1%
  AR: Severe gastroenteritis (AE table): 0.2%
  AR: Severe sepsis (AE table): 0.6%
  AR: Severe systemic inflammatory response syndrome (AE table): 0.1%
  AR: Severe urinary tract infection (AE table): 0.4%
  AR: Systemic inflammatory response syndrome (AE table): 0.1%
  AR: Tooth infection (AE table): 0.6%
  AR: Ulcerative Colitis (AE table): 0.0%
  AR: Upper respiratory tract infection (AE table): 7.7%
  AR: Vascular hypertensive disorder (AE table): 9.0%
  AR: Viral infection (AE table): 0.5%
  AR: Vulvovaginal mycotic infection (AE table): 0.2%
  AR: Wheezing (AE table): 0.7%
  ARR: ADHD (AE table): 0.0%
  ARR: Allergic sinusitis (AE table): −0.0%
  ARR: Alzheimer's Disease (AE table): 0.0%
  ARR: Asthma (AE table): 0.1%
  ARR: Atelectasis (AE table): −0.3%
  ARR: Bipolar Disease (AE table): −0.0%
  ARR: Blood CPK increased (AE table): −0.6%
  ARR: Blood glucose increased (AE table): −0.1%
  ARR: Bone Fractures (AE table): 0.0%
  ARR: Bronchiectasis (AE table): −0.1%
  ARR: Bronchitis chronic (AE table): −0.1%
  ARR: CKD (AE table): 0.1%
  ARR: COPD (AE table): 0.2%
  ARR: Carotid bruit (AE table): −0.3%
  ARR: Cholestasis (AE table): 0.0%
  ARR: Chrohn's Disease (AE table): −0.0%
  ARR: Cognitive Decline: Attention disorders and disturbances (AE table): 0.0%
  ARR: Cognitive Decline: Cognitive and attention disorders and disturbances (AE table): 0.0%
  ARR: Cough (AE table): 0.0%
  ARR: Decreased Appetite (AE table): 0.5%
  ARR: Deep Venous Thromboembolism (AE table): −0.1%
  ARR: Depression: Depressed mood disorders and disturbances (AE table): 0.3%
  ARR: Depression: Depressive disorders (AE table): 0.3%
  ARR: Depression: Depressive disorders - Agitated depression (AE table): 0.0%
  ARR: Depression: Depressive disorders - Depression (AE table): 0.2%
  ARR: Depression: Depressive disorders - Major depression (AE table): 0.0%
  ARR: Depression: Depressive disorders - Persistent depressive disorder (AE table): 0.0%
  ARR: Depression: Mood alterations - Depressed mood (AE table): 0.0%
  ARR: Depression: Mood alterations - Depressive symptom (AE table): −0.0%
  ARR: Depression: Mood alterations with depressive symptoms (AE table): −0.0%
  ARR: Dermatitis psoriasiform (AE table): 0.0%
  ARR: Dermatitis, allergic (AE table): −0.2%
  ARR: Diabetic Nephropathy (AE table): −0.0%
  ARR: ESRD (AE table): −0.0%
  ARR: Ear infection (AE table): −0.2%
  ARR: Embolism and Thrombosis (AE table): 0.1%
  ARR: Emphysema (AE table): −0.2%
  ARR: Epilepsy (AE table): 0.0%
  ARR: Erectile dysfunction (AE table): −0.4%
  ARR: Furuncle (AE table): −0.1%
  ARR: Gastroenteritis, viral (AE table): −0.3%
  ARR: Gastroesophageal reflux (AE table): −0.1%
  ARR: Gingivitis (AE table): −0.1%
  ARR: Glomerulonephritis and Nephrotic Syndrome (AE table): −0.1%
  ARR: Guttate psoriasis (AE table): 0.0%
  ARR: Helicobacter infection (AE table): −0.1%
  ARR: Hepatitis C (AE table): 0.0%
  ARR: Herpes Zoster (AE table): −0.1%
  ARR: Herpes simplex (AE table): −0.1%
  ARR: Hyperglycemia (AE table): −0.5%
  ARR: Hyperkalemia (AE table): −0.6%
  ARR: Hypertension (AE table): −0.6%
  ARR: Hypertensive Crisis (AE Table): −0.3%
  ARR: Hypokalemia (AE table): 0.1%
  ARR: Hypomagnesemia (AE table): −0.3%
  ARR: Infected bite (AE table): −0.0%
  ARR: Influenza (AE table): −0.2%
  ARR: Influenza like illness (AE table): −0.1%
  ARR: Jaundice cholestatic (AE table): 0.1%
  ARR: Large intestine polyps (AE table): −0.2%
  ARR: Limb Fractures and Dislocations (AE table): −0.1%
  ARR: Lupus (AE table): −0.0%
  ARR: Microalbuminuria (AE table): −0.3%
  ARR: Migraine (AE table): 0.2%
  ARR: Mucosal inflammation (AE table): −0.0%
  ARR: Multiple Sclerosis (AE table): −0.0%
  ARR: Muscle spasms (AE table): −1.1%
  ARR: NASH (AE table): −0.1%
  ARR: NASH for b/l NFS >0.675 (AE table): −0.4%
  ARR: NASH+Hepatic Steatosis for NFS >0.675 (AE table): −0.5%
  ARR: Nasopharyngitis, Mild Severity (AE table): −0.2%
  ARR: Nephrolithiasis (AE table): 0.1%
  ARR: Nephropathies (AE table): −0.2%
  ARR: Nephrotic Syndrome (AE table): −0.0%
  ARR: Orthopnea (AE table): −0.1%
  ARR: PTSD (AE table): −0.0%
  ARR: Pancytopenia (AE table): −0.1%
  ARR: Pneumonia (AE table): −0.3%
  ARR: Proteinuria (AE table): −0.2%
  ARR: Psoriasis (AE table): 0.3%
  ARR: Psoriatic Conditions (AE table): 0.3%
  ARR: Psychosis: Psychotic disorder NEC (AE table): −0.0%
  ARR: Pulmonary Edema (AE table): −0.2%
  ARR: Respiratory Failure (AE table): −0.0%
  ARR: Respiratory tract infection (AE table): −0.1%
  ARR: Rheumatoid Arthritis (AE table): −0.1%
  ARR: Rhinitis (AE table): −0.1%
  ARR: Schizophrenia NEC (AE table): −0.0%
  ARR: Sepsis (AE table): −0.2%
  ARR: Severe chronic obstructive pulmonary disease (AE table): −0.1%
  ARR: Severe dermatitis, allergic (AE table): −0.1%
  ARR: Severe gastroenteritis (AE table): −0.1%
  ARR: Severe sepsis (AE table): −0.2%
  ARR: Severe systemic inflammatory response syndrome (AE table): −0.1%
  ARR: Severe urinary tract infection (AE table): −0.2%
  ARR: Systemic inflammatory response syndrome (AE table): −0.1%
  ARR: Tooth infection (AE table): −0.2%
  ARR: Ulcerative Colitis (AE table): −0.0%
  ARR: Upper respiratory tract infection (AE table): −0.2%
  ARR: Vascular hypertensive disorder (AE table): −0.8%
  ARR: Vulvovaginal mycotic infection (AE table): −0.1%
  ARR: Wheezing (AE table): −0.3%
  NNT: ADHD (AE table): −8362005
  NNT: Allergic sinusitis (AE table): 2046
  NNT: Alzheimer's Disease (AE table): −3344802
  NNT: Asthma (AE table): −1019
  NNT: Atelectasis (AE table): 372
  NNT: Bipolar Disease (AE table): 2045
  NNT: Blood CPK increased (AE table): 164
  NNT: Blood glucose increased (AE table): 682
  NNT: Bone Fractures (AE table): −4088
  NNT: Bronchiectasis (AE table): 1364
  NNT: Bronchitis chronic (AE table): 1023
  NNT: CKD (AE table): −680
  NNT: COPD (AE table): −453
